Test results as given in paper PMC10606064, “2-Aminothiazole-Flavonoid Hybrid Derivatives Binding to Tau Protein and Responsible for Antitumor Activity in Glioblastoma” (International Journal of Molecular Sciences, 2023).

Legend:
[1] = target: T1, full-length human Tau (hTau40) (Homo sapiens, UniProt P10636); assay: Tau oligomerization inhibition assay (heparin-induced, thioflavin S fluorescence); format: biochemical; details: 2 µM Tau, heparin-induced, ThS; buffer A pH 6.9; 25 °C per table footnote (37 °C in method); mean ± SD; read-out: Inhibition of Aggregation IC50
T1 construct: The full-length human Tau (hTau40) was expressed in a transformed E. coli BL21 (DE3) strain; made in house; host or cells: E. coli BL21 (DE3)
T1 sequence (P10636 1-441 isoform P10636-8): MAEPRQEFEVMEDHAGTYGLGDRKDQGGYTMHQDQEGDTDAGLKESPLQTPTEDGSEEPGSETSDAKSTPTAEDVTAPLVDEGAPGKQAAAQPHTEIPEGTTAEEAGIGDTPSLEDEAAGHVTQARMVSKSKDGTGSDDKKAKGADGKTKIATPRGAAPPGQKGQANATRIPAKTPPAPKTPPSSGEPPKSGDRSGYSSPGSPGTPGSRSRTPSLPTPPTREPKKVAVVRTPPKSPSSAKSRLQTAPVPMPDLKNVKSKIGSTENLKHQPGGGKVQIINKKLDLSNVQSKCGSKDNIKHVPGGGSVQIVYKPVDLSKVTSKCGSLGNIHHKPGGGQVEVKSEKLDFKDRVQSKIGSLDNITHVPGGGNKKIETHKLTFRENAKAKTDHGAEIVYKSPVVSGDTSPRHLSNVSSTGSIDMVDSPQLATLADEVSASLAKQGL
Method: Tau oligomerization inhibition assay was performed at 37 °C in 96-well plates by monitoring thioflavin-S fluorescence at 520 nm after excitation at 440 nm using a microplate reader (POLARstar Omega system, BMG Labtech, Paris, France). The Tau oligomerization process was induced by heparin. […] The plates were shaken at 200 rpm for 10 s before each measurement. The real value of fluorescence at the plateau was determined using SciDAVis v1.23 software. Data were fitted to the SciDAVis built-in ExpGrowth equation by means of nonlinear least-squares regression analysis. Y = Y0 + A × exp(x/t)(1)
The unscaled Levenberg–Marquardt algorithm was used, and initial values were given to Y0, A, and t. The final Y0 value of the model corresponds to the plateau value. The plateau values were then used to calculate the Tau oligomerization inhibition percentage. The IC50 for each compound was calculated from the scatter plot of Tau oligomerization inhibition (in percentage) as a function of log10 of compound concentration. The IC50 value (in µM) thus corresponds to ten raised to the power of […].

U251 glioblastoma cells = assay: MTT cell viability assay, U251; format: cell-based; details: Homo sapiens, U-251, U251, 72 h, mean ± SEM, read-out: IC50 (metabolic activity)
Method: Cells harvested from sub-confluent monolayers were seeded at 15,000 cells per mL in a 96-well microtiter plate (Cambridge Technology, Labège, France) and cultured for 24 h under standard conditions. Standard medium was then replaced by fresh medium containing no drugs or compounds at different concentrations. The surviving cells were quantified after 72 h by the MTT assay, according to the manufacturer’s instructions. Briefly, 20 µL of 3-(4,5-diMethylThiazol-2-yl)-2,5diphenyl Tetrazolium bromide (MTT) solution at 5 mg.mL^−1 was added to cells for 3 h at 37 °C. The supernatant was discarded and replaced by 100 µL of dimethyl sulfoxide to dissolve formazan crystals. The absorbance was then read at 600 nm by spectrophotometry. For all concentrations of a given compound, cell viability was expressed as the percentage of the ratio between the mean absorbance of treated cells and the mean absorbance of untreated cells. Three independent experiments were performed, and the data were expressed as percentage of survival (using the untreated cells as 100%) and subjected to statistical analysis (n = 3). The IC50 was calculated using the Chou and Talalay method.

U87 shCTRL cells = assay: Mitotic index by high-content imaging, U87 shCTRL; format: cell-based, human; details: 48 h, 5-times IC50 of compounds
Method: For scoring mitotic indexes, an automated high-content screening confocal microscopy approach was employed to identify cells undergoing mitosis from a large population of cells. For this, cells nuclei were stained with DAPI. Briefly, fibronectin-coated clear-glass-bottom black 96-well imaging plates were seeded with 100 µL of cell suspension (60,000 cell.mL^−1) in each well, with both U87 shCTRL and U87 ShTau cell lines. Cells were treated with 5-times IC50 of compounds for 48 h, then they were fixated inside the palates with 4% formaldehyde (in PBS pH 7.4) for 20 min at room temperature, permeabilized with PBS-Triton X-100 0.5% for 10 min at room temperature. DNA was then stained with DAPI (10 µg.mL^−1) for 5 min at room temperature and in the darkness. After being washed, cells were kept in PBS at 4 °C and imaged while in PBS. Automated confocal microscopy was carried out using an Opera Phenix (PerkinElmer) high-content screening microscope using a 20× Air/0.4 NA air objective. For each condition, 6 wells were prepared and a total of 61 fields were acquired for each well. Image analysis was performed using Harmony high-content analysis v4.8 software and PhenoLOGIC Machine Learning technology, which uses a learn-by-example approach. As a first step, nuclei were segmented and multiple parameters for these nuclei were calculated using Harmony v4.8 software building blocks. After training, PhenoLOGIC Machine Learning then selects the best parameters to detect nuclei undergoing the M phase of mitosis. From this, the mitotic index of each condition was calculated by dividing the number of cells undergoing mitosis over the total number of cells.

[2] = system: caspase 3 protein (Casp3) in U87 shCTRL and U87 shTau cells; assay: Caspase 3 expression by Western blot (apoptosis); format: cell-based, human; details: both cell types, 48 h treatment
Method: Cells were lysed with freshly made RIPA buffer derivative (4.3 mL of TBS 1×, 50 µL of SDS 10%, 10 µL of EDTA 0.5 M, 500 µL of Triton 10×, and 1% inhibitors of protease and phosphatase). After 30 min of lysis at 4 °C under agitation, lysates were centrifuged at 10,000× g for 10 min at 4 °C. Equivalent amounts of proteins from the supernatant fraction were subjected to Western blot analysis. Protein samples were loaded (40 μg/lane) and separated on 10 or 12% sodium dodecyl sulfate-polyacrylamide gels. The separated proteins were transferred onto nitrocellulose blotting membrane using the Bio-Rad transfer system. Before blocking, the blots were stained with Ponceau red to visualize transfer efficiency. […] The band intensity was quantified using the ImageJ v1.50g software. […] The band intensity was quantified using the NIH ImageJ v1.50g software. […]
death. (A) The apoptotic protein casp ase 3 (Casp 3) was analy zed by western blot of U87 shCTRL and U87 shTau cells: for each s ample t he ratio between the amount of Casp3 and GAPDH was calculated as relative fold of the reference value (with or without the compound); n = 3 lysates, ns: non-si gnificant. […]
blot used for quantification. (B) The activity of necrotic LDH protein was analy zed by fluorescence emission in U87 shCTRL (upper panel) and U87 shTau (lower panel) cells. […]

| SMILES | IC50 [1] [µM] | IC50 (U251 glioblastoma cells) [µM] | mitotic index (U87 shCTRL cells) | expression of caspase 3 (Casp3) [2] |
| --- | --- | --- | --- | --- |
| Nc1nc2ccc3oc(C(=O)O)cc(=O)c3c2s1 [Compound 5] | > 100 | > 100 | 2.47 ± 0.19% | no change in the expression of Casp3 |
| Nc1nc2ccc3oc(-c4cccc(Oc5ccccc5)c4)cc(=O)c3c2s1 [Compound 2, 2-amino-7-(3-phenoxyphenyl)-9H-chromeno [6,5-d]thiazol-9-one] | 31.7 ± 7.3 | 1.7 ± 0.5 | no significant variation of mitotic indexes | no change in the expression of Casp3 |
